# Assay results: the supplement of paper PMC10331698
# ± gives the standard deviation of the averaged measurements.
# How the values were obtained:
# [1] = compound: OCC(F)(F)C(F)(F)C(F)(F)C(F)(F)C(F)(F)C(F)(F)C(F)(F)C(F)(F)C(F)(F)C(F)(F)C(F)(F)F [11:1 Fluorotelomer alcohol]; assay: level (log10 ratio to DMSO vehicle control); higher = higher biomarker level / cell amount than vehicle control; conditions: in DMSO
# Protocol: (§1)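 BioMAP Diversity Plus panel of 12 human primary cell co-culture systems (3C, 4H, LPS, SAg, BT, BF4T, BE3C, CASM3C, HDF3CGF, KF3CT, MyoF, Mphg). Compounds were added 1 h before stimulation and left for 24 h (MyoF 48 h; BT 72 h for soluble read-outs or 6 d for IgG). Biomarkers were read by ELISA, cytotoxicity by SRB, PBMC viability and proliferation by Alamar Blue. Each well value was divided by the mean of 8 DMSO control wells on the same plate and log10 transformed; duplicate blinded samples were tested at 4 concentrations.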
# [2] = compound: Cc1ccc(S(=O)(=O)OCC(F)(F)C(F)(F)C(F)(F)C(F)(F)C(F)(F)C(F)F)cc1 [1H,1H,7H-Perfluoroheptyl 4-methylbenzenesulfonate]; assay: as above; conditions: in DMSO
# Protocol: as §1
Test System,level (log10) ([1]; 1100 nM),level (log10) ([1]; 3300 nM),level (log10) ([1]; 10000 nM),level (log10) ([2]; 6700 nM),level (log10) ([2]; 20000 nM),level (log10) ([2]; 60000 nM)
BF4T:SRB,-0.003 ± 0.0014,-0.0075 ± 0.0064,0.001 ± 0.014,-0.003 ± 0.0042,-0.008 ± 0.0028,-0.015 ± 0.0099
BF4T:tPA,0.0015 ± 0.0092,-0.003 ± 0.0071,0.026 ± 0.024,-0.0305 ± 0.025,-0.0255 ± 0.022,-0.0555 ± 0.025
BF4T:uPA,0,-0.005 ± 0.0071,0.0015 ± 0.0064,-0.0185 ± 0.00071,-0.01 ± 0.0042,-0.0165 ± 0.0064
BT:B cell Proliferation,-0.103 ± 0.023,-0.144 ± 0.026,-0.44 ± 0.42,-0.0165 ± 0.012,0.011 ± 0.0028,-0.034 ± 0.0057
BT:PBMC Cytotoxicity,-0.073 ± 0.044,-0.09 ± 0.038,-0.0775 ± 0.019,-0.017 ± 0.0057,0.008 ± 0.0014,-0.017
BT:Secreted IgG,0.007 ± 0.025,0.0025 ± 0.033,-0.014 ± 0.054,0.006 ± 0.018,-0.019 ± 0.035,-0.22 ± 0.18
BT:sIL-2,0.108 ± 0.058,0.0255 ± 0.083,-0.02 ± 0.073,0.0615 ± 0.0021,0.0305 ± 0.042,-0.0025 ± 0.14
BT:sIL-6,0.209 ± 0.0092,0.116 ± 0.034,0.083 ± 0.085,0.0155 ± 0.011,-0.0245 ± 0.069,-0.0975 ± 0.021
BT:sIL-17A,0.329 ± 0.16,0.401 ± 0.032,0.325 ± 0.06,0.093 ± 0.0099,0.037 ± 0.045,-0.117 ± 0.12
BT:sIL-17F,0.308 ± 0.0078,0.319 ± 0.096,0.33 ± 0.077,0.0475 ± 0.13,-0.037 ± 0.051,-0.105 ± 0.032
BT:sTNF-alpha,-0.057 ± 0.031,-0.127 ± 0.0064,-0.0825 ± 0.079,0.102 ± 0.067,0.0055 ± 0.084,0.084 ± 0.069
LPS:CCL2/MCP-1,-0.001 ± 0.0028,-0.011 ± 0.011,-0.009 ± 0.035,-0.013 ± 0.0057,-0.01 ± 0.0071,-0.004 ± 0.013
LPS:CD40,0.0305 ± 0.028,0.0205 ± 0.0035,-0.0275 ± 0.00071,-0.0185 ± 0.066,0.0215 ± 0.054,0.129 ± 0.061
LPS:CD62E/E-Selectin,0.016 ± 0.0085,0.01 ± 0.0099,0.015 ± 0.014,0.001 ± 0.0057,0.012 ± 0.027,0.0375 ± 0.0078
LPS:CD69,0.006 ± 0.021,0.004,-0.003 ± 0.031,-0.026 ± 0.048,-0.0665 ± 0.088,-0.055
LPS:CD106/VCAM-1,-0.025 ± 0.0042,-0.025 ± 0.02,-0.015 ± 0.0028,0.01 ± 0.0071,0.006 ± 0.0014,0.025 ± 0.011
LPS:CD141/Thrombomodulin,-0.0285 ± 0.015,-0.0185 ± 0.012,-0.0035 ± 0.013,-0.0115 ± 0.016,-0.011 ± 0.0085,-0.007 ± 0.023

Test System,level (log10) ([1]; 1100 nM),level (log10) ([1]; 3300 nM),level (log10) ([1]; 10000 nM),level (log10) ([2]; 6700 nM),level (log10) ([2]; 20000 nM),level (log10) ([2]; 60000 nM)
LPS:CD142/Tissue Factor,0.056 ± 0.0028,0.084 ± 0.03,0.0995 ± 0.00071,-0.0355 ± 0.11,-0.022 ± 0.065,0.161 ± 0.039
LPS:CXCL8/IL-8,-0.007 ± 0.011,-0.013 ± 0.0014,-0.0305 ± 0.039,0.0265 ± 0.015,0.008 ± 0.014,0.0195 ± 0.0021
LPS:IL-1alpha,-0.0655 ± 0.0092,-0.14 ± 0.0035,-0.144 ± 0.012,-0.018 ± 0.017,-0.006 ± 0.0042,-0.039 ± 0.0085
LPS:M-CSF,-0.009 ± 0.018,-0.054 ± 0.047,-0.0825 ± 0.066,-0.019 ± 0.033,-0.026 ± 0.0057,0.008 ± 0.03
LPS:SRB,-0.029 ± 0.0099,-0.0455 ± 0.0021,-0.036 ± 0.0014,0.006 ± 0.0099,-0.0075 ± 0.00071,-0.031 ± 0.0042
LPS:sPGE2,0.151 ± 0.075,0.212 ± 0.0064,0.211 ± 0.044,-0.0185 ± 0.03,-0.023 ± 0.024,0.003 ± 0.058
LPS:sTNF-alpha,0.0075 ± 0.012,-0.0485 ± 0.013,-0.105 ± 0.08,0.003 ± 0.0057,-0.006 ± 0.016,-0.0035 ± 0.0064
SAg:CCL2/MCP-1,0.0095 ± 0.0078,-0.013 ± 0.044,0.0225 ± 0.039,-0.024 ± 0.016,-0.027 ± 0.011,-0.021 ± 0.023
SAg:CD38,-0.0115 ± 0.084,-0.014 ± 0.073,0.0035 ± 0.042,0.005 ± 0.0057,-0.0075 ± 0.012,-0.0075 ± 0.012
SAg:CD40,-0.038 ± 0.024,-0.068,-0.0685 ± 0.042,-0.0125 ± 0.0078,0.001 ± 0.031,-0.0135 ± 0.011
SAg:CD62E/E-Selectin,0.045 ± 0.0057,0.0325 ± 0.018,0.0355 ± 0.035,0.021 ± 0.0028,0.007 ± 0.018,-0.0115 ± 0.028
SAg:CD69,-0.0355 ± 0.021,-0.0425 ± 0.029,-0.038 ± 0.023,-0.01 ± 0.0099,0.0205 ± 0.016,0.0105 ± 0.00071
SAg:CXCL8/IL-8,0.0365 ± 0.042,-0.0005 ± 0.0035,-0.121 ± 0.28,0.005 ± 0.0014,0.0025 ± 0.0064,0.0265 ± 0.033
SAg:CXCL9/MIG,-0.004 ± 0.03,-0.0175 ± 0.035,0.012 ± 0.03,0.001 ± 0.0042,-0.028,-0.0075 ± 0.0064
SAg:PBMC Cytotoxicity,-0.233 ± 0.016,-0.266 ± 0.02,-0.268 ± 0.076,0.0275 ± 0.0092,0.0285 ± 0.0092,0.017 ± 0.02
SAg:Proliferation,-0.248 ± 0.083,-0.364 ± 0.13,-0.473 ± 0.35,-0.0085 ± 0.07,-0.011 ± 0.0085,-0.0335 ± 0.086
SAg:SRB,-0.0415 ± 0.0092,-0.066 ± 0.0028,-0.065 ± 0.013,0.002 ± 0.0057,-0.017 ± 0.011,-0.109 ± 0.02
